Assay results reported in publication PMC13163009, “Pyrimethamine Restores KEAP1-Mediated Degradation of Select NRF2 Mutants in Esophageal Squamous Cell Carcinoma” (Cancers, 2026).

Experiments:
[1] = target: T1, KEAP1 (Kelch-like ECH-associated protein 1) (Homo sapiens, UniProt Q14145); assay: ITC with recombinant full-length KEAP1; SPR showed PYR modestly increases DLG(W24C) peptide binding to the Kelch domain
T1 construct: human recombinant KEAP1 (Gln2-Cys624)

[2] = target: T2, Kelch fragment (Ala321-Glu611 of human KEAP1 protein) (human, UniProt Q14145 321-611, biotinylated (site not stated)); assay: SPR; Biacore S200; biotinylated Kelch immobilised on a streptavidin chip; DLG peptides as analytes, 2-fold dilutions from 200 uM to 0.39 uM; 30 uL/min, 90 s association, 180 s dissociation; analysis at 15 °C; also run with PYR mixed into the analyte with the DLG peptides; settings: both partners purified
T2 construct: Kelch-like ECH-associated protein 1 (KEAP1), human, Kelch fragment Ala321-Glu611; printed MW 34,038.03 Da; The printed mass (34,038.03 Da) looks larger than residues 321-611 alone, so extra residues or a tag for biotinylation may be present; also called Kelch domain; Kelch domain fragment of KEAP1; source: expressed in vitro, purified, biotinylated, validated by LC-MS
T2 sequence (Q14145 321-611): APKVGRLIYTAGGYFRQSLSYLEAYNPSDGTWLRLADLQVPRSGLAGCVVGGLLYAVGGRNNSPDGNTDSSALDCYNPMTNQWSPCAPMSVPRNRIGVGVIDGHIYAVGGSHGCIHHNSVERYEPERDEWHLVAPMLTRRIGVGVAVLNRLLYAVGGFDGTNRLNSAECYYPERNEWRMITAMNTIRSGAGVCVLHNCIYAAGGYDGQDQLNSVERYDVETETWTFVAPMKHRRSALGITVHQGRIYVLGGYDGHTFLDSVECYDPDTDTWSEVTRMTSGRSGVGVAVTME

T1 sequence (Q14145 2-624): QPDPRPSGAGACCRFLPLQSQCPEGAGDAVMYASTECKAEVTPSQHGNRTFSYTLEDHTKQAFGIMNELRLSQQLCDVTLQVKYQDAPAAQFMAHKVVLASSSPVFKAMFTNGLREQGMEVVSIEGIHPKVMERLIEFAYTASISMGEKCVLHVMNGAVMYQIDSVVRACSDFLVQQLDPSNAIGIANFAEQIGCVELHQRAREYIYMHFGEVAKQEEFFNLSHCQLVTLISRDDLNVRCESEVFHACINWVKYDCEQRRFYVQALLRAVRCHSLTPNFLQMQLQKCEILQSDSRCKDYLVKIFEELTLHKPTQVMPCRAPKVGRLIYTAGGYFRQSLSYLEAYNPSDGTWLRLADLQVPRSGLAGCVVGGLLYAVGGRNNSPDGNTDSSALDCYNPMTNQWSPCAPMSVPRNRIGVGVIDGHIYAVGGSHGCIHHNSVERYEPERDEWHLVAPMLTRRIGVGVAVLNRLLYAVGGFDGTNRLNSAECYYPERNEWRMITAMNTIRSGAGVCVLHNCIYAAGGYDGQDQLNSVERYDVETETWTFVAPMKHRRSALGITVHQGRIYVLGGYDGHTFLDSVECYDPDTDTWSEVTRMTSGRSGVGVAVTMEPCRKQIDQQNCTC

Row | Kd [1] [µM] | binding result [2] | Molecule
1 | 13 | – | CCc1nc(N)nc(N)c1-c1ccc(Cl)cc1 [PYR, pyrimethamine]
2 | – | binds | MDLIDILWRQDIDLGVSREVFDFS (nuclear factor erythroid 2-related factor 2 (NRF2, NFE2L2), residues 17-40 with the DLG motif; also called DLG-containing NRF2 peptide; source: synthetic peptide) [DLG^WT peptide (NRF2 residues 17-40)]
